Measurements published in PubChem BioAssay AID1963986 (Molecular Pharmacology Branch, DTP, NCI, 2024).

Tested on: 171881-019-R-J1-PDC tumor spheroid viability
Assay: Anticancer human tumor 171881-019-R-J1-PDC patient-derived invasive breast carcinoma cell line growth inhibition [PI3K]
Conditions: spheroids with HUVEC and MSC; for IC50: curve of first compound; for viability, T/C: stronger effect = lower value
Procedure, shortened: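 Targeted small molecules plus PI3K inhibitors, half-log dose series from Cmax (default top 10 microM), were applied to heterotypic spheroids of cancer cells with HUVEC and MSCs. Viability indicated growth inhibition.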
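Note: spheroids exposed to compound for 7 days before viability read.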
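Throughout, for viability, T/C: 100% = DMSO vehicle-treated spheroids.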

## CCN1CCN(Cc2ccc(Nc3ncc(F)c(-c4cc(F)c5nc(C)n(C(C)C)c5c4)n3)nc2)CC1 + COc1c(OCCCN2CCOCC2)ccc2c3n(c(=NC(=O)c4cnc(N)nc4)nc12)CCN3
Second compound 0.00316 µM
  IC50: > 1000 nM
Second compound 0.01 µM
  IC50: > 1000 nM
Second compound 0.0316 µM
  IC50: < 3.16 nM
Second compound 0.1 µM
  IC50: < 3.16 nM
Second compound 0.316 µM
  IC50: < 3.16 nM
Second compound 1 µM
  IC50: < 3.16 nM
Second compound 0.00316 µM, first compound 0.00316 µM
  viability, T/C: 71.9%
Second compound 0.00316 µM, first compound 0.01 µM
  viability, T/C: 73.1%
Second compound 0.00316 µM, first compound 0.0316 µM
  viability, T/C: 83.8%
Second compound 0.00316 µM, first compound 0.1 µM
  viability, T/C: 80.4%
Second compound 0.00316 µM, first compound 0.316 µM
  viability, T/C: 93.8%
Second compound 0.00316 µM, first compound 1 µM
  viability, T/C: 99.6%
Second compound 0.01 µM, first compound 0.00316 µM
  viability, T/C: 48.9%
Second compound 0.01 µM, first compound 0.01 µM
  viability, T/C: 56.9%
Second compound 0.01 µM, first compound 0.0316 µM
  viability, T/C: 53.6%
Second compound 0.01 µM, first compound 0.1 µM
  viability, T/C: 63.8%
Second compound 0.01 µM, first compound 0.316 µM
  viability, T/C: 69%
Second compound 0.01 µM, first compound 1 µM
  viability, T/C: 83.2%
Second compound 0.0316 µM, first compound 0.00316 µM
  viability, T/C: 27.4%
Second compound 0.0316 µM, first compound 0.01 µM
  viability, T/C: 31.5%
Second compound 0.0316 µM, first compound 0.0316 µM
  viability, T/C: 33.8%
Second compound 0.0316 µM, first compound 0.1 µM
  viability, T/C: 36.9%
Second compound 0.0316 µM, first compound 0.316 µM
  viability, T/C: 44.6%
Second compound 0.0316 µM, first compound 1 µM
  viability, T/C: 50.6%
Second compound 0.1 µM, first compound 0.00316 µM
  viability, T/C: 10.5%
Second compound 0.1 µM, first compound 0.01 µM
  viability, T/C: 10.2%
Second compound 0.1 µM, first compound 0.0316 µM
  viability, T/C: 12.2%
Second compound 0.1 µM, first compound 0.1 µM
  viability, T/C: 12.8%
Second compound 0.1 µM, first compound 0.316 µM
  viability, T/C: 16%
Second compound 0.1 µM, first compound 1 µM
  viability, T/C: 23.8%
Second compound 0.316 µM, first compound 0.00316 µM
  viability, T/C: 2.23%
Second compound 0.316 µM, first compound 0.01 µM
  viability, T/C: 2.11%
Second compound 0.316 µM, first compound 0.0316 µM
  viability, T/C: 2.24%
Second compound 0.316 µM, first compound 0.1 µM
  viability, T/C: 2.94%
Second compound 0.316 µM, first compound 0.316 µM
  viability, T/C: 4.39%
Second compound 0.316 µM, first compound 1 µM
  viability, T/C: 7.79%
Second compound 1 µM, first compound 0.00316 µM
  viability, T/C: 0.86%
Second compound 1 µM, first compound 0.01 µM
  viability, T/C: 1.08%
Second compound 1 µM, first compound 0.0316 µM
  viability, T/C: 1.81%
Second compound 1 µM, first compound 0.1 µM
  viability, T/C: 1.03%
Second compound 1 µM, first compound 0.316 µM
  viability, T/C: 1.58%
Second compound 1 µM, first compound 1 µM
  viability, T/C: 2.28%
